Data on three molecules can be found in US20070196442A1, “Method for improving the oral administration of alpha-lipoic acid” (priority 2006, published 2007).

The conditions of data set [1]: background / U.S. Pat. No. 3,562,273; cited from earlier work.
The nature of data set [2]: double-blind, randomized comparative taste-test of oral alpha-lipoic acid solutions (throat irritation, overall liking). It counts as in vivo. To be noted: of seventeen subjects.
A further data set can be described thus: pH of aqueous solution. It counts as physicochemical. To be noted: noted by the inventors.

With `NC(CO)(CO)CO` [trometamol, 2-amino-2-(hydroxymethyl)propane-1,3-diol], the “pH in a 0.1M aqueous solution” value in data set [1] is listed as 10.4. For `O=C(O)CCCC[C@@H]1CCSS1` [ALA, 5-[(3R)-dithiolan-3-yl]pentanoic acid], in data set [2], the “number of subjects ranking the sample as the most irritating of the three samples” value is on record as “fourteen”.

Consider `NC(CO)(CO)CO.O=C(O)CCCCC1CCSS1` (stereo not shown) [TR-ALA, tris(hydroxymethyl) amino methane thioctate], for which the “pH of the salt” value in the data set “pH of aqueous solution” lay in the range of 6.5 to 7.5. Also, the “pH in a 0.1M aqueous solution” value in data set [1] is reported as 6.5.
